For the assay, the target named is T1, thrombin (Homo sapiens, UniProt P00734).
T1 construct: gene F2
Nature of the assay: thrombin generation assay in human plasma (fluorogenic Z-Gly-Gly-Arg-AMC, AUC); thrombin time prolonged.

Molecules are shown by their SMILES.

For the molecule `Cn1c(CNc2ccc(C(=N)N)cc2)nc2cc(C(=O)N(CCC(=O)O[C@@H]3O[C@H](C(=O)O)[C@@H](O)[C@H](O)[C@H]3O)c3ccccn3)ccc21` [DABG, dabigatran acylglucuronide], the half-maximal inhibitory concentration (IC50) came to 435 nM.

The record behind these values is article PMC8875894, “Dabigatran Acylglucuronide, the Major Metabolite of Dabigatran, Shows a Weaker Anticoagulant Effect than Dabigatran” (Pharmaceutics, 2022).
